Reference: patent US11053204B2, “Pyrimidinyloxy benzene derivatives as herbicides” (FMC Corporation, priority 2015, dated 2021)

Columns and labels:
Type in all cases: in vivo
[1] = test system: oat, wild (wild oat Avena fatua); test: Test C preemergence, plant response rating
[2] = test system: galium (catchweed bedstraw, Galium aparine); test: Test C preemergence, plant response rating
[3] = test system: pigweed, palmer (palmer pigweed, Amaranthus palmeri); test: Test C postemergence, plant response rating; settings: for Pigweed, Palmer plant response rating: scale 0 to 100 (0 no effect, 100 complete control)
Outline: (§1)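 Greenhouse plants rated visually against untreated controls 13–15 d after treatment, scale 0 = no effect to 100 = complete control. Postemergence sprays went onto potted plants 2–18 cm tall (1–4 leaves); preemergence sprays onto soil freshly sown in loam–sand or silt loam, chemicals formulated in non-phytotoxic solvent with surfactant.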

[4] = test system: field poppy (Papaver rhoeas); test: Test C postemergence, plant response rating; settings: for Field Poppy plant response rating: scale 0 to 100 (0 no effect, 100 complete control)
Outline: as §1

[5] = test system: nightshade (eastern black nightshade, Solanum ptycanthum); test: Test C postemergence, plant response rating; settings: for Nightshade plant response rating: scale 0 to 100 (0 no effect, 100 complete control)
Outline: as §1

[6] = test system: windgrass (Apera spica-venti); test: Test C postemergence, plant response rating; settings: for Windgrass plant response rating: 125 g ai/ha, scale 0 to 100 (0 no effect, 100 complete control)
Outline: as §1

[7] = test system: wild mustard (Sinapis arvensis); test: Test C postemergence, plant response rating; settings: for Mustard, Wild plant response rating: scale 0 to 100 (0 no effect, 100 complete control)
Outline: as §1

[8] = test system: Canada thistle (Cirsium arvense); test: Test C postemergence, plant response rating; settings: for Canada Thistle plant response rating: scale 0 to 100 (0 no effect, 100 complete control)
Outline: as §1

[9] = test system: geranium, cutleaf (cutleaf geranium, Geranium dissectum); test: Test C postemergence, plant response rating; settings: for Geranium, Cutleaf plant response rating: scale 0 to 100 (0 no effect, 100 complete control)
Outline: as §1

[10] = test system: field violet (Viola arvensis); test: Test C postemergence, plant response rating; settings: for Field Violet plant response rating: scale 0 to 100 (0 no effect, 100 complete control)
Outline: as §1

[11] = test system: buckwheat, wild (wild buckwheat, Polygonum convolvulus); test: Test C postemergence, plant response rating; settings: for Buckwheat, Wild plant response rating: scale 0 to 100 (0 no effect, 100 complete control)
Outline: as §1

[12] = test system: speedwell (bird's-eye speedwell, Veronica persica); test: Test C postemergence, plant response rating; settings: for Speedwell plant response rating: scale 0 to 100 (0 no effect, 100 complete control)
Outline: as §1

[13] = test system: johnsongrass (Sorghum halepense); test: Test C preemergence, plant response rating
[14] = test system: surinam grass (Brachiaria decumbens); test: Test C preemergence, plant response rating
[15] = test system: pigweed, palmer (palmer pigweed, Amaranthus palmeri); test: Test C preemergence, plant response rating
[16] = test system: windgrass (Apera spica-venti); test: Test C preemergence, plant response rating
[17] = test system: wild poinsettia (Euphorbia heterophylla); test: Test C preemergence, plant response rating

Compound: CCCCC(=O)c1c(Oc2ncc(Cl)cn2)cccc1C(F)(F)F [Compound 130]
- Plant response rating, Oat, Wild ([1]; 31 g ai/ha, scale 0 to 100): 15
- Plant response rating, Oat, Wild ([1]; 62 g ai/ha, scale 0 to 100): 35
- Plant response rating, Oat, Wild ([1]; 125 g ai/ha, scale of 0 to 100): 60
- Plant response rating, Galium ([2]; 31 g ai/ha, scale 0 to 100): 50
- Plant response rating, Galium ([2]; 62 g ai/ha, scale 0 to 100): 90
- Plant response rating, Galium ([2]; 125 g ai/ha, scale of 0 to 100): 90
- Plant response rating, Pigweed, Palmer ([3]; 16 g ai/ha, scale of 0 to 100): 35
- Plant response rating, Pigweed, Palmer ([3]; 31 g ai/ha, scale 0 to 100): 65
- Pigweed, Palmer plant response rating ([3]; 62 g ai/ha): 45
- Pigweed, Palmer plant response rating ([3]; 125 g ai/ha): 65
- Plant response rating, Field Poppy ([4]; 16 g ai/ha, scale of 0 to 100): 100
- Plant response rating, Field Poppy ([4]; 31 g ai/ha, scale 0 to 100): 100
- Field Poppy plant response rating ([4]; 62 g ai/ha): 100
- Field Poppy plant response rating ([4]; 125 g ai/ha): 100
- Plant response rating, Nightshade ([5]; 16 g ai/ha, scale of 0 to 100): 75
- Plant response rating, Nightshade ([5]; 31 g ai/ha, scale 0 to 100): 80
- Nightshade plant response rating ([5]; 62 g ai/ha): 85
- Nightshade plant response rating ([5]; 125 g ai/ha): 90
- Plant response rating, Windgrass ([6]; 16 g ai/ha, scale of 0 to 100): 10
- Plant response rating, Windgrass ([6]; 31 g ai/ha, scale 0 to 100): 15
- Windgrass plant response rating [6]: 35
- Plant response rating, Mustard, Wild ([7]; 16 g ai/ha, scale of 0 to 100): 98
- Plant response rating, Mustard, Wild ([7]; 31 g ai/ha, scale 0 to 100): 90
- Mustard, Wild plant response rating ([7]; 62 g ai/ha): 100
- Mustard, Wild plant response rating ([7]; 125 g ai/ha): 100
- Plant response rating, Canada Thistle ([8]; 16 g ai/ha, scale of 0 to 100): 75
- Plant response rating, Canada Thistle ([8]; 31 g ai/ha, scale 0 to 100): 75
- Canada Thistle plant response rating ([8]; 62 g ai/ha): 98
- Canada Thistle plant response rating ([8]; 125 g ai/ha): 98
- Plant response rating, Geranium, Cutleaf ([9]; 16 g ai/ha, scale of 0 to 100): 25
- Plant response rating, Geranium, Cutleaf ([9]; 31 g ai/ha, scale 0 to 100): 35
- Geranium, Cutleaf plant response rating ([9]; 62 g ai/ha): 45
- Geranium, Cutleaf plant response rating ([9]; 125 g ai/ha): 60
- Plant response rating, Field Violet ([10]; 16 g ai/ha, scale of 0 to 100): 80
- Plant response rating, Field Violet ([10]; 31 g ai/ha, scale 0 to 100): 85
- Field Violet plant response rating ([10]; 62 g ai/ha): 95
- Field Violet plant response rating ([10]; 125 g ai/ha): 100
- Plant response rating, Buckwheat, Wild ([11]; 16 g ai/ha, scale of 0 to 100): 35
- Plant response rating, Buckwheat, Wild ([11]; 31 g ai/ha, scale 0 to 100): 90
- Buckwheat, Wild plant response rating ([11]; 62 g ai/ha): 75
- Buckwheat, Wild plant response rating ([11]; 125 g ai/ha): 80
- Plant response rating, Speedwell ([12]; 16 g ai/ha, scale of 0 to 100): 80
- Plant response rating, Speedwell ([12]; 31 g ai/ha, scale 0 to 100): 85
- Speedwell plant response rating ([12]; 62 g ai/ha): 98
- Speedwell plant response rating ([12]; 125 g ai/ha): 98
- Plant response rating, Johnsongrass ([13]; 31 g ai/ha, scale 0 to 100): 10
- Plant response rating, Johnsongrass ([13]; 62 g ai/ha, scale 0 to 100): 70
- Plant response rating, Johnsongrass ([13]; 125 g ai/ha, scale of 0 to 100): 85
- Plant response rating, Surinam Grass ([14]; 31 g ai/ha, scale 0 to 100): 50
- Plant response rating, Surinam Grass ([14]; 62 g ai/ha, scale 0 to 100): 65
- Plant response rating, Surinam Grass ([14]; 125 g ai/ha, scale of 0 to 100): 80
- Plant response rating, Pigweed, Palmer ([15]; 31 g ai/ha, scale 0 to 100): 75
- Plant response rating, Pigweed, Palmer ([15]; 62 g ai/ha, scale 0 to 100): 100
- Plant response rating, Pigweed, Palmer ([15]; 125 g ai/ha, scale of 0 to 100): 85
- Plant response rating, Windgrass ([16]; 31 g ai/ha, scale 0 to 100): 70
- Plant response rating, Windgrass ([16]; 62 g ai/ha, scale 0 to 100): 100
- Plant response rating, Windgrass ([16]; 125 g ai/ha, scale of 0 to 100): 100
- Plant response rating, Poinsettia, Wild ([17]; 31 g ai/ha, scale 0 to 100): 0
- Plant response rating, Poinsettia, Wild ([17]; 62 g ai/ha, scale 0 to 100): 10
- Plant response rating, Poinsettia, Wild ([17]; 125 g ai/ha, scale of 0 to 100): 45

Compound: CCCC(=O)c1c(Oc2ncc(Cl)cn2)cccc1C(F)(F)F [Compound 136]
- Plant response rating, Oat, Wild ([1]; 31 g ai/ha, scale 0 to 100): 0
- Plant response rating, Oat, Wild ([1]; 62 g ai/ha, scale 0 to 100): 5
- Plant response rating, Oat, Wild ([1]; 125 g ai/ha, scale of 0 to 100): 45
- Plant response rating, Galium ([2]; 31 g ai/ha, scale 0 to 100): 0
- Plant response rating, Galium ([2]; 62 g ai/ha, scale 0 to 100): 50
- Plant response rating, Galium ([2]; 125 g ai/ha, scale of 0 to 100): 90
- Plant response rating, Pigweed, Palmer ([3]; 16 g ai/ha, scale of 0 to 100): 50
- Plant response rating, Pigweed, Palmer ([3]; 31 g ai/ha, scale 0 to 100): 55
- Pigweed, Palmer plant response rating ([3]; 62 g ai/ha): 70
- Pigweed, Palmer plant response rating ([3]; 125 g ai/ha): 70
- Plant response rating, Field Poppy ([4]; 16 g ai/ha, scale of 0 to 100): 65
- Plant response rating, Field Poppy ([4]; 31 g ai/ha, scale 0 to 100): 85
- Field Poppy plant response rating ([4]; 62 g ai/ha): 80
- Field Poppy plant response rating ([4]; 125 g ai/ha): 90
- Plant response rating, Nightshade ([5]; 16 g ai/ha, scale of 0 to 100): 70
- Plant response rating, Nightshade ([5]; 31 g ai/ha, scale 0 to 100): 75
- Nightshade plant response rating ([5]; 62 g ai/ha): 70
- Nightshade plant response rating ([5]; 125 g ai/ha): 80
- Plant response rating, Windgrass ([6]; 16 g ai/ha, scale of 0 to 100): 5
- Plant response rating, Windgrass ([6]; 31 g ai/ha, scale 0 to 100): 10
- Windgrass plant response rating [6]: 30
- Plant response rating, Mustard, Wild ([7]; 16 g ai/ha, scale of 0 to 100): 85
- Plant response rating, Mustard, Wild ([7]; 31 g ai/ha, scale 0 to 100): 95
- Mustard, Wild plant response rating ([7]; 62 g ai/ha): 85
- Mustard, Wild plant response rating ([7]; 125 g ai/ha): 100
- Plant response rating, Canada Thistle ([8]; 16 g ai/ha, scale of 0 to 100): 65
- Plant response rating, Canada Thistle ([8]; 31 g ai/ha, scale 0 to 100): 75
- Canada Thistle plant response rating ([8]; 62 g ai/ha): 85
- Canada Thistle plant response rating ([8]; 125 g ai/ha): 85
- Plant response rating, Geranium, Cutleaf ([9]; 16 g ai/ha, scale of 0 to 100): 15
- Plant response rating, Geranium, Cutleaf ([9]; 31 g ai/ha, scale 0 to 100): 25
- Geranium, Cutleaf plant response rating ([9]; 62 g ai/ha): 50
- Geranium, Cutleaf plant response rating ([9]; 125 g ai/ha): 45
- Plant response rating, Field Violet ([10]; 16 g ai/ha, scale of 0 to 100): 85
- Plant response rating, Field Violet ([10]; 31 g ai/ha, scale 0 to 100): 90
- Field Violet plant response rating ([10]; 62 g ai/ha): 95
- Field Violet plant response rating ([10]; 125 g ai/ha): 100
- Plant response rating, Buckwheat, Wild ([11]; 16 g ai/ha, scale of 0 to 100): 50
- Plant response rating, Buckwheat, Wild ([11]; 31 g ai/ha, scale 0 to 100): 60
- Buckwheat, Wild plant response rating ([11]; 62 g ai/ha): 90
- Buckwheat, Wild plant response rating ([11]; 125 g ai/ha): 80
- Plant response rating, Speedwell ([12]; 16 g ai/ha, scale of 0 to 100): 75
- Plant response rating, Speedwell ([12]; 31 g ai/ha, scale 0 to 100): 80
- Speedwell plant response rating ([12]; 62 g ai/ha): 80
- Speedwell plant response rating ([12]; 125 g ai/ha): 85
- Plant response rating, Johnsongrass ([13]; 31 g ai/ha, scale 0 to 100): 25
- Plant response rating, Johnsongrass ([13]; 62 g ai/ha, scale 0 to 100): 35
- Plant response rating, Johnsongrass ([13]; 125 g ai/ha, scale of 0 to 100): 70
- Plant response rating, Surinam Grass ([14]; 31 g ai/ha, scale 0 to 100): 25
- Plant response rating, Surinam Grass ([14]; 62 g ai/ha, scale 0 to 100): 10
- Plant response rating, Surinam Grass ([14]; 125 g ai/ha, scale of 0 to 100): 100
- Plant response rating, Pigweed, Palmer ([15]; 31 g ai/ha, scale 0 to 100): 75
- Plant response rating, Pigweed, Palmer ([15]; 62 g ai/ha, scale 0 to 100): 100
- Plant response rating, Pigweed, Palmer ([15]; 125 g ai/ha, scale of 0 to 100): 100
- Plant response rating, Windgrass ([16]; 31 g ai/ha, scale 0 to 100): 30
- Plant response rating, Windgrass ([16]; 62 g ai/ha, scale 0 to 100): 85
- Plant response rating, Windgrass ([16]; 125 g ai/ha, scale of 0 to 100): 100
- Plant response rating, Poinsettia, Wild ([17]; 31 g ai/ha, scale 0 to 100): 5
- Plant response rating, Poinsettia, Wild ([17]; 62 g ai/ha, scale 0 to 100): 25
- Plant response rating, Poinsettia, Wild ([17]; 125 g ai/ha, scale of 0 to 100): 50
